The record followed here is ChEMBL document CHEMBL3865829 (Eur J Med Chem, 2016).

Experiment [1] can be described thus: Cytotoxicity against human A549 cells after 72 hrs by MTT assay. The class given is functional, cell-based. Particulars: A549, 72 h. (Tetrazolium dyes change colour on reduction, which living cells bring about.)
A short description of experiment [2]: Cytotoxicity against human U87MG cells after 72 hrs by MTT assay. Particulars: U-87 MG. It counts as functional, cell-based, U-87MG ATCC.
A further experiment in a line: cells. As to conditions: Homo sapiens, HCT-116, 72 h.
Experiment [3] is described as follows: Cytotoxicity against human MDA-MB-231 cells after 72 hrs by MTT assay. It counts as functional, cell-based. Particulars: MDA-MB-231, 72 h.
Experiment [4] is described as follows: Cytotoxicity against human HepG2 cells after 72 hrs by MTT assay. It counts as functional, cell-based. As to conditions: HepG2, 72 h.
Experiment [5] deals with Phosphatidylinositol 4,5-bisphosphate 3-kinase catalytic subunit alpha isoform (Homo sapiens, UniProt P42336). Description: Inhibition of PI3Kalpha (unknown origin) using PIP2 as substrate after 1 hr in presence of ATP by kinase-glo luminescence assay. (In general: In Kinase-Glo more light means more ATP remaining.)
Phosphatidylinositol 4,5-bisphosphate 3-kinase catalytic subunit alpha isoform, sequence (P42336 whole entry, canonical isoform): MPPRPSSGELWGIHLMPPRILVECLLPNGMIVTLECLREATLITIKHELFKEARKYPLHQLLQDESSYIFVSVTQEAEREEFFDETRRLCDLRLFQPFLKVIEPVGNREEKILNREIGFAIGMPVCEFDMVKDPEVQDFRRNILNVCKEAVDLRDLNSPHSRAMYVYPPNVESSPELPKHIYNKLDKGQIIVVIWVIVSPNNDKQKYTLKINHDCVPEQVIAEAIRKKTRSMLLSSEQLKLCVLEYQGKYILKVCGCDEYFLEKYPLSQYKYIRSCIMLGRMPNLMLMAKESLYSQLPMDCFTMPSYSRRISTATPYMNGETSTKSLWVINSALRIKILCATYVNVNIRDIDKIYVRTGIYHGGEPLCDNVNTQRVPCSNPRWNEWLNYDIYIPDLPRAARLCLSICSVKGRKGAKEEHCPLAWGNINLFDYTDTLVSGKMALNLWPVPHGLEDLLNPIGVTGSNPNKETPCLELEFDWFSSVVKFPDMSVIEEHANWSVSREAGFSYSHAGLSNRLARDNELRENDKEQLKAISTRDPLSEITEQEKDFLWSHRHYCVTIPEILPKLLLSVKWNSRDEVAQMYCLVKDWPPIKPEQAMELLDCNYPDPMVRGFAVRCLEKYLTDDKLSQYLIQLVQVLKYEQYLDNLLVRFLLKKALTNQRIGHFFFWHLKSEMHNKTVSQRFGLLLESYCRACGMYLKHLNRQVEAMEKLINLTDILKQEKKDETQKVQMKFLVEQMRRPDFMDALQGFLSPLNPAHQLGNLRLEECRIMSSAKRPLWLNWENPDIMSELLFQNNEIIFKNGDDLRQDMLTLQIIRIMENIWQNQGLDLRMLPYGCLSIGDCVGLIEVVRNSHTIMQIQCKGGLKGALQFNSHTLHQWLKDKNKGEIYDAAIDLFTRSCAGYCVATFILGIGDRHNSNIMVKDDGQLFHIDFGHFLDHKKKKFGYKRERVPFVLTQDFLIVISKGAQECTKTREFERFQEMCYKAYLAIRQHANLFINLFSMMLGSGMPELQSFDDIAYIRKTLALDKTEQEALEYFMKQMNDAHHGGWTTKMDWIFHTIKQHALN
The next experiment deals with HCT-116. Description: Potency index, ratio of GSK2126458 IC50 to compound IC50 for human HCT116 cells. It counts as functional.
A short description of experiment [6]: Cytotoxicity against human NCI60 cells after 48 hrs by SRB assay. The class given is functional. Particulars: NCI60, 48 h. For orientation: In SRB staining, fixed cells bind dye roughly in proportion to their protein.

Regarding `COc1ncc(-c2ccc3nccc(Cl)c3c2)cc1NS(=O)(=O)c1ccc(F)cc1F`, the IC50 in experiment [1] was 2940 nM; in experiment [2] it was more than 100000 nM; in “cells”, 6590 nM.

With `O=S(=O)(Nc1cc(-c2ccc3nccc(-c4ccc(Cn5cncn5)cc4)c3c2)cnc1Cl)c1ccc(F)cc1`, the IC50 in experiment [3] was determined as 228 nM; in experiment [1] it was 178 nM; in “cells”, 33 nM; in experiment [4], 9600 nM.

In the case of `COc1ncc(-c2ccc3nccc(-c4ccc(CN(C)CCO)cc4)c3c2)cc1NS(=O)(=O)c1ccc(F)cc1`, the concentration for half-maximal inhibition (IC50) in experiment [3] amounted to 210 nM; in experiment [1], 22 nM; in “cells” it was 25 nM; in experiment [4] it was 1850 nM.

Consider `COc1ncc(-c2ccc3nccc(-c4ccc(CN5CCOCC5)cc4)c3c2)cc1NS(=O)(=O)c1ccc(F)cc1F`, for which the figures for the IC50 in experiment [5] and in experiment [1] were 1.1 nM and 70 nM, respectively.

As to `COc1ncc(-c2ccc3nccc(-c4ccc(CN5CCN(C)CC5)cc4)c3c2)cc1NS(=O)(=O)c1ccc(F)cc1F`, the 50% inhibitory concentration (IC50) in experiment [1] was 13.3 nM; in experiment [2] it was 336 nM; in “cells” it was 43.9 nM.

Consider `COc1ncc(-c2ccc3nccc(-c4ccc(CN5CCOCC5)cc4)c3c2)cc1NS(=O)(=O)c1ccc(F)cc1`, for which the IC50 in experiment [3] is 1970 nM; in experiment [1], 17 nM; in the experiment “cells” it was 30 nM; in experiment [4], 27200 nM.

As to `O=S(=O)(Nc1cc(-c2ccc3nccc(-c4ccc(CN5CCOCC5)cc4)c3c2)cnc1Cl)c1ccc(F)cc1`, the IC50 in experiment [3] is 2580 nM; in experiment [1], 53 nM; in “cells”, 41 nM; in experiment [4], 7740 nM.

In the case of `COc1ncc(-c2ccc3nccc(-c4ccc(Cn5cccn5)cc4)c3c2)cc1NS(=O)(=O)c1ccc(F)cc1F`, the IC50 was determined as 30.8 nM in experiment [1], 1600 nM in experiment [2] and 53.1 nM in the experiment “cells”.

Consider `CCN(CC)Cc1ccc(-c2ccnc3ccc(-c4cnc(OC)c(NS(=O)(=O)c5ccc(F)cc5F)c4)cc23)cc1`, for which the concentration for half-maximal inhibition (IC50) was 22 to 22.1 nM in experiment [1], 4890 nM in experiment [2] and 5 nM in the experiment “cells”.

For the compound `COc1ncc(-c2ccc3nccc(-c4ccc(Cn5cncn5)cc4)c3c2)cc1NS(=O)(=O)c1ccc(F)cc1F`, the IC50 in experiment [1] was 16 nM; in the experiment “cells”, 8.7 nM. Besides, the “Ratio IC50” value in the experiment on HCT-116 came to 18.

In the case of `COc1ncc(-c2ccc3nccc(N4CCOCC4)c3c2)cc1NS(=O)(=O)c1ccc(F)cc1F`, the concentration for half-maximal inhibition (IC50) in experiment [1] is 2400 nM; in experiment [2], more than 100000 nM; in the experiment “cells” it was 4430 nM.

On to `O=S(=O)(Nc1cc(-c2ccc3nccc(-c4ccc(Cn5cncn5)cc4)c3c2)cnc1Cl)c1ccc(F)cc1F`, for which the concentration for half-maximal inhibition (IC50) in experiment [3] was found to be 340 nM; in experiment [1] it was 642 nM; in the experiment “cells” it was 36 nM; in experiment [4] it was 2040 nM.

`CN(CCO)Cc1ccc(-c2ccnc3ccc(-c4cnc(Cl)c(NS(=O)(=O)c5ccc(F)cc5F)c4)cc23)cc1`: the half-maximal inhibitory concentration (IC50) was 337 nM in experiment [3], 121 nM in experiment [1], 41 nM in “cells” and 2880 nM in experiment [4].

As for `COc1ncc(-c2ccc3nccc(-c4ccc(CN(C)CCO)cc4)c3c2)cc1NS(=O)(=O)c1ccc(F)cc1F`, the IC50 in experiment [1] stood at 20 nM; in the experiment “cells”, 4.7 nM. Also, in the experiment on HCT-116, the “Ratio IC50” value is more than 30.

As for `COc1ncc(-c2ccc3nccc(N4CCCC4)c3c2)cc1NS(=O)(=O)c1ccc(F)cc1F`, the values for the IC50 (in experiment [1]; in experiment [2]; in the experiment “cells”) were 3410 nM, 6690 nM and 3320 nM, respectively.

For the compound `COc1ncc(-c2ccc3nccc(-c4ccc(Cn5ccnc5)cc4)c3c2)cc1NS(=O)(=O)c1ccc(F)cc1F`, the IC50 in experiment [1] is 30.8 nM; in experiment [2] it was 600 nM; in the experiment “cells”, 32.6 nM.

For the compound `COc1ncc(-c2ccc3nccc(-c4ccc(CN(C)CCN(C)C)cc4)c3c2)cc1NS(=O)(=O)c1ccc(F)cc1F`, the IC50 came out at 2.5 nM in experiment [5], 13 nM in experiment [1] and 254 nM in experiment [2].

For `CCN(Cc1ccc(-c2ccnc3ccc(-c4cnc(OC)c(NS(=O)(=O)c5ccc(F)cc5F)c4)cc23)cc1)C1CCCCC1`, the IC50 in experiment [1] stood at 20.2 nM; in experiment [2] it was 1450 nM; in “cells”, 222 nM.

As to `COc1ncc(-c2ccc3nccc(-c4ccc(CN5CCN(C(C)C)CC5)cc4)c3c2)cc1NS(=O)(=O)c1ccc(F)cc1F`, the values for the IC50 (in experiment [1]; in experiment [2]; in the experiment “cells”) were 1.9 nM, 468 nM and 24.7 nM, respectively.

Consider `CN(C)Cc1ccc(-c2ccnc3ccc(-c4cnc(Cl)c(NS(=O)(=O)c5ccc(F)cc5F)c4)cc23)cc1`, for which the half-inhibitory concentration (IC50) was 53 nM in experiment [3], 251 nM in experiment [1], 24 nM in “cells” and 3860 nM in experiment [4].

`COc1ncc(-c2ccc3nccc(-c4ccc(CN5CCCC5)cc4)c3c2)cc1NS(=O)(=O)c1ccc(F)cc1F`: the half-maximal inhibitory concentration (IC50) in experiment [1] was found to be 37.5 nM; in experiment [2], 159 nM; in the experiment “cells”, 18.8 nM.

As for `COc1ncc(-c2ccc3nccc(-c4ccc(CN5CCCCC5)cc4)c3c2)cc1NS(=O)(=O)c1ccc(F)cc1F`, the results for the IC50 (in experiment [1]; in experiment [2]; in the experiment “cells”) were 15.5 nM, 32 nM and 34.1 nM, respectively.

`O=S(=O)(Nc1cc(-c2ccc3nccc(-c4ccc(CN5CCOCC5)cc4)c3c2)cnc1Cl)c1ccc(F)cc1F`: the half-inhibitory concentration (IC50) in experiment [3] worked out at 2420 nM; in experiment [1] it was 24 nM; in “cells” it was 51 nM; in experiment [4], 2310 nM.

Regarding `CN(CCO)Cc1ccc(-c2ccnc3ccc(-c4cnc(Cl)c(NS(=O)(=O)c5ccc(F)cc5)c4)cc23)cc1`, the IC50 in experiment [3] was determined as 260 nM; in experiment [1], 15 nM; in “cells”, 24 nM; in experiment [4], 1910 nM.

`CC(=O)O[C@H]1C(=O)[C@@]2(C)[C@H]([C@H](OC(=O)c3ccccc3)[C@]3(O)C[C@H](OC(=O)[C@H](O)[C@@H](NC(=O)c4ccccc4)c4ccccc4)C(C)=C1C3(C)C)[C@]1(OC(C)=O)CO[C@@H]1C[C@@H]2O` [PACLITAXEL]: in experiment [6], the 50% growth inhibitory concentration (GI50) was found to be 31.5 nM.

Consider `COc1ncc(-c2ccc3nccc(-c4ccc(Cn5cncn5)cc4)c3c2)cc1NS(=O)(=O)c1ccc(F)cc1`, for which the half-maximal inhibitory concentration (IC50) in experiment [3] turned out to be 283 nM; in experiment [1], 33 nM; in “cells”, 26 nM; in experiment [4] it was 12700 nM.

`COc1ncc(-c2ccc3nccc(-c4ccc(CN(CCO)CCO)cc4)c3c2)cc1NS(=O)(=O)c1ccc(F)cc1F`: the concentration for half-maximal inhibition (IC50) in experiment [1] is 2.8 nM; in experiment [2] it was 143 nM; in the experiment “cells”, 3.8 nM.

`CC[C@@]1(O)C(=O)OCc2c1cc1n(c2=O)Cc2cc3ccccc3nc2-1` [CAMPTOTHECIN] yielded a GI50 in experiment [6] of 39.8 nM.

Turning to `COc1ncc(-c2ccc3nccc(-c4ccc(CN5CCN(CCO)CC5)cc4)c3c2)cc1NS(=O)(=O)c1ccc(F)cc1F`, the half-maximal inhibitory concentration (IC50) in experiment [1] came to 24.8 nM; in experiment [2], 21.2 nM; in “cells”, 21.7 nM.

Take `COc1ncc(-c2ccc3nccc(-c4ccc(Cn5ccnc5C)cc4)c3c2)cc1NS(=O)(=O)c1ccc(F)cc1F`: the IC50 is 10.2 nM in experiment [1], 40 nM in experiment [2] and 14.2 nM in the experiment “cells”.

Regarding `COc1ncc(-c2ccc3nccc(-c4ccc(CN(C)C)cc4)c3c2)cc1NS(=O)(=O)c1ccc(F)cc1`, the IC50 in experiment [3] stood at 350 nM; in experiment [1], 25 nM; in the experiment “cells”, 24 nM; in experiment [4], 3020 nM.

As to `COc1ncc(-c2ccc3nccc(-c4ccc(C)cc4)c3c2)cc1NS(=O)(=O)c1ccc(F)cc1F`, the half-inhibitory concentration (IC50) came out at 1240 nM in experiment [1], 67000 nM in experiment [2] and 2540 nM in the experiment “cells”.

One may read the IC50 as the point on the concentration scale where inhibition reaches its midpoint. Usually GI50 stands for the concentration giving 50% growth inhibition. Lower therefore signals greater sensitivity of the cells.
